In patent US9493460B2, “Diimide compounds” (UCL BUSINESS PLC, priority 2013, dated 2016):
Where two headings read alike, the source gives them in different places.

How the values were obtained:
[1] = test system: RCC4 (renal) cells; assay: SRB growth inhibition assay, 96 hr exposure, RCC4; format: cell-based, human
Experimental: (§1) Human cancer cell lines, MCF7 (breast), A549 (lung), Mia-PaCa2, PANC1 and HPAC (pancreatic), RCC4 and 786-0 renal, and the somatic human cell line WI-38 (lung fibroblast) were purchased from ATCC. Cell lines were maintained in appropriate medium supplemented with 10% foetal bovine serum (Invitrogen, UK), 2 mM L-glutamine (Invitrogen, Netherlands), and other components as specified by the suppliers. Cell lines were maintained at 37° C., 5% CO2 and routinely passaged. Drugs were dissolved in DMSO and filtered through 0.22 μm pore-size filter units before addition to cell line appropriate media. Cellular growth inhibition was measured using the sulforhodamine B (SRB) assay in 96 well plates as described previously.^1,2 Fifty percent inhibitory concentrations (IC50) were determined by taking the mean absorbance at 540 nm for each drug concentration expressed as a percentage of the absorbance of untreated control wells.
(§2) The anti-proliferative activity of the group of nine ND derivatives was assessed using the SRB assay following 96 h exposure to 2-fold serial dilutions of each compound (Table 2) in a panel of cancer cell lines together with a normal fibroblast line. […] In contrast the morpholine compounds all show sub-μM anti-proliferative activity in at least some of the cancer cell lines used and the two compounds 3d, 3h with n=3 —(CH2)n— linkers to the morpholine groups, show particularly potent activity in the Mia-PaCa2 and PANC1 pancreatic carcinoma and A549 lung adenocarcinoma cell lines (IC50 values of 10-20 nM).
(§3) Next a series of structural isomers were tested.

[2] = test system: 786-O (renal) cells; assay: SRB growth inhibition assay, 96 hr exposure, 786-O; format: cell-based, human; conditions: SRB assay, 96 hr exposure
Experimental: as §1, §2, §3

[3] = test system: MCF-7 (breast) cells; assay: SRB growth inhibition assay, 96 hr exposure, MCF-7; format: cell-based, human
Experimental: as §1, §2, §3

[4] = test system: MiaPaCa2 (pancreatic) cells; assay: SRB growth inhibition assay, MiaPaCa2; format: cell-based, human; conditions: SRB assay, 96 hr exposure
Experimental: as §1, §2
Dose-response curves were used to guide the choice of compound concentration and time-points for the array experiments (FIG. 2a). […] To explore this response continuum the transcriptional signature of cells exposed for 24 h to 20 nM, 40 nM, 80 nM concentrations of 3d, or solvent alone as control, was analysed as described in Materials and Methods.
as §3

[5] = test system: A549 (lung) cells; assay: SRB growth inhibition assay, 96 hr exposure, A549; format: cell-based, human
Experimental: as §1, §2, §3

[6] = test system: Panc1 (pancreatic) cells; assay: SRB growth inhibition assay, 96 hr exposure, Panc1; format: cell-based, human; conditions: 96 hr exposure
Experimental: as §1, §2, §3

[7] = test system: WI38 normal human fibroblast cells; assay: SRB growth inhibition assay, 96 hr exposure, WI38; format: cell-based
Experimental: as §1
as §2, with “nM). […]” for “nM).”

[8] = test system: human telomeric G-quadruplex DNA (F21T); assay: FRET melting assay, human telomeric quadruplex; format: binding; conditions: for change in melting temperature F21T 1 uM: 1 uM ligand; for change in melting temperature F21T 2 uM: 2 uM ligand; for selectivity for quadruplex over duplex DNA (in words): compared to the n=3 compounds
Description: (§4) The ability of the naphthalene diimide compounds to stabilize DNA sequences was investigated using a fluorescence resonance energy transfer (FRET) assay modified to be used as a high-throughput screen in a 96-well format. Several quadruplex sequences were studied (the human telomeric G-quadruplex DNA sequence 5′-FAM-d(GGG[TTAGGG]3)-TAMRA-3′ and the duplex sequence 5′-FAM-dTATAGCTATA-HEG-TATAGCTATA-TAMRA-3′ (HEG linker: [(—CH2—CH2—O—)6])), as well as two overlapping sequences from the HSP90 promoter region (HSP90a and HSP90b):
(§5) The labelled oligonucleotides have attached to them the donor fluorophore FAM: 6-carboxyfluorescein and the acceptor fluorophore TAMRA: 6-carboxytetramethylrhodamine. The FRET probe sequences were diluted from stock to the correct concentration (400 nM) in a 60 mM potassium cacodylate buffer (pH 7.4) and then annealed by heating to 85° C. for 10 min, followed by cooling to room temperature in the heating block. The compound was stored as a 10 mM stock solution in DMSO; final solutions (at 2×concentration) were prepared using 10 mM HCl in the initial 1:10 dilution, after which 60 mM potassium cacodylate buffer (pH 7.4) was used in all subsequent steps. The maximum HCl concentration in the reaction volume (at a ligand concentration of 20 μM) is thus 200 μM, well within the range of the buffer used. Relevant controls were also performed to check for interference with the assay. 96-Well plates (MJ Research, Waltham, Mass.) were prepared by aliquoting 50 μl of the annealed DNA into each well, followed by 50 μl of the compound solutions. Measurements were made on a DNA Engine Opticon (MJ Research) with excitation at 450-495 nm and detection at 515-545 nm. Fluorescence readings were taken at intervals of 0.5° C. in the range 30-100° C., with a constant temperature being maintained for 30 s prior to each reading to ensure a stable value. Final analysis of the data was carried out using a script written in the program Origin 7.0 (OriginLab Corp., Northampton, Mass.). The advanced curve-fitting function in Origin 7.0 was used for calculation of ΔTm values. All determinations were performed in triplicate or better. Esds in ΔTm are ±0.1° C.
The ability of compounds 3a-h to stabilize a human telomeric quadruplex was assessed by a high-throughput FRET (Fluorescence Resonance Energy Transfer) melting technique. […] None of the furan tetrahydrofuran, pyranose or acyclic ether compounds has any effect on quadruplex or duplex stability.
(§6) The T-loop sequence represents duplex DNA.

[9] = test system: HSP90a promoter quadruplex sequence; assay: FRET melting assay, Hsp90A quadruplex; format: binding; conditions: for change in melting temperature Hsp90A 1 uM: 1 uM ligand; for change in melting temperature Hsp90A 2 uM: 2 uM ligand
Description: as §4
as §5, with “±0.1° C. […]” for “±0.1° C.”

[10] = test system: HSP90b promoter quadruplex sequence; assay: FRET melting assay, Hsp90B quadruplex; format: binding; conditions: for change in melting temperature Hsp90B 1 uM: 1 uM ligand; for change in melting temperature Hsp90B 2 uM: 2 uM ligand
Description: as §4
as §5, with “±0.1° C. […]” for “±0.1° C.”

[11] = test system: duplex DNA (T-loop); assay: FRET melting assay, duplex DNA; format: binding; conditions: for change in melting temperature Tloop 1 uM: 1 uM ligand; for change in melting temperature Tloop 2 uM: 2 uM ligand
Description: as §4, §5, §6

[12] = Homo sapiens, A549, 96 hr exposure

| Structure (SMILES) | change in melting temperature F21T 1 uM [8] | change in melting temperature F21T 2 uM [8] | change in melting temperature Hsp90A 1 uM [9] | change in melting temperature Hsp90A 2 uM [9] | change in melting temperature Hsp90B 1 uM [10] | change in melting temperature Hsp90B 2 uM [10] | change in melting temperature Tloop 1 uM [11] | change in melting temperature Tloop 2 uM [11] | IC50 ([1]; Homo sapiens, RCC4) [µM] | IC50 ([2]; Homo sapiens, 786-0) [µM] | IC50 ([3]; Homo sapiens, MCF7) [µM] | IC50 ([4]; Homo sapiens, MIA PaCa-2) [µM] | IC50 [5, 12] [µM] | IC50 ([7]; Homo sapiens, WI-38) [µM] | other results |
| --- | --- | --- | --- | --- | --- | --- | --- | --- | --- | --- | --- | --- | --- | --- | --- |
| CN1CCN(CCCN2C(=O)c3cc(NCC4CCCO4)c4c5c(cc(NCC6CCCO6)c(c35)C2=O)C(=O)N(CCCN2CCN(C)CC2)C4=O)CC1 (racemic) [SKM038] | <2 | 15 | 21 | 23 | 13 | 17 | 0 | 0 |  |  |  |  |  |  | IC50 [1]: 3 ± 0.17 µM; IC50 [2]: 0.39 ± 0.02 µM; IC50 [3]: 0.56 ± 0.034 µM; IC50 [4]: 0.095 ± 0.003 µM; IC50 ([5]; 96 hr exposure): 0.16 ± 0.002 µM; IC50 [6]: 1.5 ± 0.17 µM; IC50 [7]: 2.3 ± 0.08 µM |
| CN1CCN(CCCNc2cc3c4c(c(NCCCN5CCN(C)CC5)cc5c4c2C(=O)N(CCN2CCOCC2)C5=O)C(=O)N(CCN2CCOCC2)C3=O)CC1 [Compound 3f, 4,9-bis((3-(4-methylpiperazin-1-yl)propyl)amino)-2,7-bis(2-morpholinoethyl)benzo[lmn][3,8]phenanthroline-1,3,6,8(2H,7H)-tetraone] |  |  |  |  |  |  |  |  |  |  |  |  |  |  | selectivity for quadruplex over duplex DNA (in words) [8]: superior selectivity for quadruplex over duplex DNA |
| CN1CCN(CCNc2cc3c4c(c(NCCN5CCN(C)CC5)cc5c4c2C(=O)N(CCN2CCOCC2)C5=O)C(=O)N(CCN2CCOCC2)C3=O)CC1 [Compound 3g, 4,9-bis((2-(4-methylpiperazin-1-yl)ethyl)amino)-2,7-bis(2-morpholinoethyl)benzo[lmn][3,8]phenanthroline-1,3,6,8(2H,7H)-tetraone] |  |  |  |  |  |  |  |  |  |  |  |  |  |  | selectivity for quadruplex over duplex DNA (in words) [8]: superior selectivity for quadruplex over duplex DNA |
| CN1CCN(CCCNc2cc3c4c(c(NCCCN5CCN(C)CC5)cc5c4c2C(=O)N(CC2CCCO2)C5=O)C(=O)N(CC2CCCO2)C3=O)CC1 (centres unmarked) [MM10] | 23 | 26 | 27 | 30 | 21 | 28 | 0 | 0 | > 10 | > 10 | > 10 | 5.65 ± 0.93 | 5.57 ± 0.87 | > 10 |  |
| CN1CCN(CCCNc2cc3c4c(c(NCCCN5CCN(C)CC5)cc5c4c2C(=O)N(CC2CCOCC2)C5=O)C(=O)N(CC2CCOCC2)C3=O)CC1 [MM33] | <2 | <2 | <2 | <2 | <2 | <2 | 0 | 0 | 8.38 ± 0.5 | 1.2 ± 0.03 | 3.12 ± 0.13 | 2.5 ± 0.01 | 2.92 ± 0.01 | 12.65 ± 0.11 |  |
| COCCCN1C(=O)c2cc(NCCCN3CCN(C)CC3)c3c4c(cc(NCCCN5CCN(C)CC5)c(c24)C1=O)C(=O)N(CCCOC)C3=O [MM43] | <2 | 22 | 29 | 32 | 24 | 29 | 0 | 0 | 10.5 ± 0.14 | 7.17 ± 0.41 | 5.62 ± 0.15 | 2.79 ± 0.09 | 2.54 ± 0.01 | 3.32 ± 0.5 |  |
| CN1CCN(CCCNc2cc3c4c(c(NCCCN5CCN(C)CC5)cc5c4c2C(=O)N(CCN2CCOCC2)C5=O)C(=O)N(CCN2CCOCC2)C3=O)CC1 [MM45] | 27 | 31 | 34 | 36 | 29 | 34 | 0 | 1 | 1.75 ± 0.18 | 0.63 ± 0.06 | 0.17 ± 0.01 | 0.04 ± 0.01 | 1.55 ± 0.02 | 0.61 ± 0.02 |  |
| CN1CCN(CCNc2cc3c4c(c(NCCN5CCN(C)CC5)cc5c4c2C(=O)N(CCCN2CCOCC2)C5=O)C(=O)N(CCCN2CCOCC2)C3=O)CC1 [MM47] | 28 | 33 | 32 | 36 | 31 | 34 | 8 | 12 | 0.28 ± 0.06 |  | 0.03 ± 0.01 | 0.01 ± 0.01 | 0.023 ± 0.006 | 2.46 ± 0.02 |  |
